The source of these data is US12435060B2, “Acylamino bridged heterocyclic compound, and composition and application thereof” (BEIJING SCITECH-MQ PHARMACEUTICALS LIMITED, priority 2019, dated 2025).

Each structure is given as a SMILES string.

This assay has as its system HT29 cells. The experiment in a line: Inhibition of cell necrosis (CCK8 method), induced programmed necrosis of HT29 cells. Format: cell-based. The settings on record: Homo sapiens, HT-29; rescue from necrosis induced by TNF-α 20 ng/mL, AT-406 1 μM, Z-VAD-FMK 20 μM; 16-20 hours; CCK-8, OD 450 nm. In short, it runs like this: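 HT29 cells in McCOY's 5A with 10% FBS were pre-treated for 30 min with compound (9 fourfold steps, 25000 to 0.38 nM final, 0.25% DMSO). Necrosis was then induced with TNF-α 20 ng/mL, AT-406 1 μM and Z-VAD-FMK 20 μM for 16-20 h. Viability was read by CCK-8 OD450, normalized between uninduced and induced wells, and IC50 was curve-fitted.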
(In general: Tetrazolium dyes change colour on reduction, which living cells bring about.)
For `Cc1ccc(OCCCC(F)(F)F)cc1-c1ccnc(NC(=O)c2nnc(Cc3ccccc3)[nH]2)c1` [Example 138, 5-benzyl-N-(4-(2-methyl-5-(4,4,4-trifluorobutoxy)phenyl)pyridin-2-yl)-4H-1,2,4-triazole-3-carboxamide], the IC50 (usually the concentration that inhibits the measured activity by half) was at most 0.1 µM. To `Cc1ccc(OCCCC(C)(C)O)cc1-c1ccnc(NC(=O)c2nnc(CC(C)C)[nH]2)c1` [Example 169, N-(4-(5-((4-hydroxy-4-methylpentyl)oxy)-2-methylphenyl)pyridin-2-yl)-5-isobutyl-4H-1,2,4-triazole-3-carboxamide] belongs at most 0.1 µM; to `Cc1ccc(S(=O)(=O)CCCC(C)(C)O)cc1-c1ccnc(NC(=O)c2nnc(Cc3ccccc3)[nH]2)c1` [Example 474, 5-benzyl-N-(4-(5-((4-hydroxy-4-methylpentyl)sulfonyl)-2-methylphenyl)pyridin-2-yl)-4H-1,2,4-triazole-3-carboxamide], 0.1 to 1 µM; to `O=C(Nc1cc(-c2cc(OCCC3CCOCC3)ccc2Cl)ncn1)c1nnc(Cc2ccccc2F)[nH]1` [Example 471, N-(6-(2-chloro-5-(2-(tetrahydro-2H-pyran-4-yl)ethoxy)phenyl)pyrimidin-4-yl)-5-(2-fluorobenzyl)-4H-1,2,4-triazole-3-carboxamide], at most 0.1 µM. For `CCOCCOc1ccc(Cl)c(-c2ccnc(NC(=O)c3nnc(Cc4ccccc4F)[nH]3)c2)c1` [Example 384, 5-(2-fluorobenzyl)-N-(4-(2-chloro-5-(2-ethoxyethoxy)phenyl)pyridin-2-yl)-4H-1,2,4-triazole-3-carboxamide], the IC50 is at most 0.1 µM. For the molecule `COc1ccc(C)nc1-c1ccnc(NC(=O)c2nnc(Cc3ccccc3)[nH]2)c1` [Example 60, 5-benzyl-N-(3-methoxy-6-methyl-[2,4′-bipyridin]-2′-yl)-4H-1,2,4-triazole-3-carboxamide], the IC50 was over 10 µM. For `O=C(Nc1cc(-c2cccc3c2CCCC3)ccn1)c1nnc(Cc2ccccc2)[nH]1` [Example 43, 5-benzyl-N-(4-(5,6,7,8-tetrahydronaphthalen-1-yl)pyridin-2-yl)-4H-1,2,4-triazole-3-carboxamide] the value was 1 to 10 µM. Take `CC(C)(O)CCCCOc1ccc(Cl)c(-c2cc(NC(=O)c3nnc(Cc4ccccc4F)[nH]3)ncc2F)c1` [Example 419, N-(4-(2-chloro-5-((5-hydroxyl-5-methylhexyl)oxy)phenyl)-5-fluoropyridin-2-yl)-5-(2-fluorobenzyl)-4H-1,2,4-triazole-3-carboxamide]: the IC50 was at most 0.1 µM. To `O=C(Nc1cc(-c2cc(OCCCCCO)ccc2Cl)ccn1)c1nnc(CC2CCCCC2)[nH]1` [Example 378, N-(4-(2-chloro-5-((5-hydroxypentyl)oxy)phenyl)pyridin-2-yl)-5-(cyclohexylmethyl)-4H-1,2,4-triazole-3-carboxamide] belongs at most 0.1 µM. To `O=C(Nc1cc(-c2cc(OCCC3CCOCC3)ccc2F)ccn1)c1nnc(CC2CCCCC2)[nH]1` [Example 317, 5-(cyclohexylmethyl)-N-(4-(2-fluoro-5-(2-(tetrahydro-2H-pyran-4-yl)ethoxy)phenyl)pyridin-2-yl)-4H-1,2,4-triazole-3-carboxamide] belongs at most 0.1 µM.

Consider `O=C(Nc1cc(-c2cc(OCC3CCOCC3)ccc2Cl)c(Cl)cn1)c1nnc(Cc2ccccc2F)[nH]1` [Example 424, N-(5-chloro-4-(2-chloro-5-((tetrahydro-2H-pyran-4-yl)methoxy)phenyl)pyridin-2-yl)-5-(2-fluorobenzyl)-4H-1,2,4-triazole-3-carboxamide], for which the IC50 was 0.1 to 1 µM.

Take `CC(C)(O)CCCOc1ccc(Cl)c(-c2cc(NC(=O)c3nnc(CC4CCCCC4)[nH]3)ncn2)c1` [Example 465, 5-(cyclohexylmethyl)-N-(6-(2-chloro-5-((4-hydroxy-4-methylpentyl)oxy)phenyl)pyrimidin-4-yl)-4H-1,2,4-triazole-3-carboxamide]: the IC50 was at most 0.1 µM. Molecule `COCCOc1ccc(C)c(-c2ccnc(NC(=O)c3nnc(Cc4ccccc4)[nH]3)c2)c1` [Example 128, 5-benzyl-N-(4-(5-(2-methoxyethoxy)-2-methylphenyl)pyridin-2-yl)-4H-1,2,4-triazole-3-carboxamide] registered an IC50 of at most 0.1 µM.

Molecule `Cc1ccc(OCCCC(C)(C)O)cc1-c1ccnc(NC(=O)c2nnc(Cc3cccc(Cl)c3)[nH]2)c1` [Example 185, 5-(3-chlorobenzyl)-N-(4-(5-((4-hydroxy-4-methylpentyl)oxy)-2-methylphenyl)pyridin-2-yl)-4H-1,2,4-triazole-3-carboxamide] came in with an IC50 of at most 0.1 µM.

With `Cc1ccc(OCC#N)cc1-c1ccnc(NC(=O)c2nnc(Cc3ccccc3)[nH]2)c1` [Example 120, 5-benzyl-N-(4-(5-(cyanomethoxy)-2-methylphenyl)pyridin-2-yl)-4H-1,2,4-triazole-3-carboxamide], the IC50 lay within 0.1 to 1 µM. Take `O=C(Nc1cc(-c2cc(OCCC3CCOCC3)ccc2Cl)ccn1)c1nnc(CC2CCCCC2)[nH]1` [Example 406, N-(4-(2-chloro-5-(2-(tetrahydro-2H-pyran-4-yl)ethoxy)phenyl)pyridin-2-yl)-5-(cyclohexylmethyl)-4H-1,2,4-triazole-3-carboxamide]: the IC50 was at most 0.1 µM.

As to `O=C(Nc1cc(-c2cccc3c2CCC3)ccn1)c1nnc(Cc2ccccc2)[nH]1` [Example 39, 5-benzyl-N-(4-(2,3-dihydro-1H-inden-4-yl)pyridin-2-yl)-4H-1,2,4-triazole-3-carboxamide], the concentration for half-maximal inhibition (IC50) lay within 1 to 10 µM. To `CCOc1ncccc1-c1ccnc(NC(=O)c2nnc(Cc3ccccc3)[nH]2)c1` [Example 22, 5-benzyl-N-(2-ethoxy-[3,4′-bipyridin]-2′-yl)-4H-1,2,4-triazole-3-carboxamide] belongs 1 to 10 µM; to `O=C(Nc1cc(-c2cc(OCC3CCOCC3)ccc2C(F)(F)F)ccn1)c1nnc(Cc2cccc(F)c2)[nH]1` [Example 301, 5-(3-fluorobenzyl)-N-(4-(5-((tetrahydro-2H-pyran-4-yl)methoxy)-2-(trifluoromethyl)phenyl)pyridin-2-yl)-4H-1,2,4-triazole-3-carboxamide], at most 0.1 µM; to `CC(C)(O)CCCOc1ccc(C(F)(F)F)c(-c2ccnc(NC(=O)c3nnc(Cc4ccc(F)cc4)[nH]3)c2)c1` [Example 257, 5-(4-fluorobenzyl)-N-(4-(5-((4-hydroxy-4-methylpentyl)oxy)-2-(trifluoromethyl)phenyl)pyridin-2-yl)-4H-1,2,4-triazole-3-carboxamide], at most 0.1 µM. `CC(C)(O)COc1ccc(C(F)(F)F)c(-c2ccnc(NC(=O)c3nnc(Cc4ccccc4)[nH]3)c2)c1` [Example 264, 5-benzyl-N-(4-(5-(2-hydroxyl-2-methylpropoxy)-2-(trifluoromethyl)phenyl)pyridin-2-yl)-4H-1,2,4-triazole-3-carboxamide] gave an IC50 of at most 0.1 µM. `COCCCOc1ccc(Cl)c(-c2ccnc(NC(=O)c3nnc(CC4CCCC4)[nH]3)c2)c1` [Example 397, N-(4-(2-chloro-5-(3-methoxypropoxy)phenyl)pyridin-2-yl)-5-(cyclopentylmethyl)-4H-1,2,4-triazole-3-carboxamide] returned an IC50 of at most 0.1 µM. For `Cc1ccc(OCCN2CCCCC2)cc1-c1ccnc(NC(=O)c2nnc(Cc3cccc(Cl)c3F)[nH]2)c1` [Example 233, 5-(2-fluoro-3-chlorobenzyl)-N-(4-(2-methyl-5-(2-(piperidin-1-yl)ethoxy)phenyl)pyridin-2-yl)-4H-1,2,4-triazole-3-carboxamide] the value was 1 to 10 µM.

In turn, `CSCCCOc1ccc(C)c(-c2ccnc(NC(=O)c3nnc(Cc4ccccc4)[nH]3)c2)c1` [Example 72, 5-benzyl-N-(4-(2-methyl-5-(3-(methylthio)propoxy)phenyl)pyridin-2-yl)-4H-1,2,4-triazole-3-carboxamide] came in with an IC50 of at most 0.1 µM. To `Cc1ccc(OCCCC(C)(C)O)cc1-c1cc(NC(=O)c2nnc(CC3CCCCC3)[nH]2)ncc1C` [Example 241, 5-(cyclohexylmethyl)-N-(4-(5-((4-hydroxy-4-methylpentyl)oxy)-2-methylphenyl)-5-methylpyridin-2-yl)-4H-1,2,4-triazole-3-carboxamide] belongs 0.1 to 1 µM; to `Cc1ccc(OCCCC(C)(C)O)cc1-c1ccnc(NC(=O)c2nnc(Cc3ccc(F)c(C(F)(F)F)c3)[nH]2)c1` [Example 212, 5-(4-fluoro-3-trifluoromethylbenzyl)-N-(4-(5-((4-hydroxy-4-methylpentyl)oxy)-2-methylphenyl)pyridin-2-yl)-4H-1,2,4-triazole-3-carboxamide], 0.1 to 1 µM; to `O=C(Nc1cc(-c2cc(OCC3CCOCC3)ccc2C(F)(F)F)ncn1)c1nnc(Cc2ccccc2)[nH]1` [Example 454, 5-benzyl-N-(6-(5-((tetrahydro-2H-pyran-4-yl)methoxy)-2-(trifluoromethyl)phenyl)pyrimidin-4-yl)-4H-1,2,4-triazole-3-carboxamide], at most 0.1 µM. On to `CC(C)(O)CCCOc1ccc(Cl)c(-c2ccnc(NC(=O)c3nnc(Cc4c(F)ccc(F)c4F)[nH]3)c2)c1` [Example 353, N-(4-(2-chloro-5-((4-hydroxy-4-methylpentyl)oxy)phenyl)pyridin-2-yl)-5-(2,3,6-trifluorobenzyl)-4H-1,2,4-triazole-3-carboxamide], for which the IC50 was at most 0.1 µM. To `O=C(Nc1cc(-c2cc(OCCCCCO)ccc2Cl)ccn1)c1nnc(Cc2ccccc2)[nH]1` [Example 375, 5-benzyl-N-(4-(2-chloro-5-((5-hydroxypentyl)oxy)phenyl)pyridin-2-yl)-4H-1,2,4-triazole-3-carboxamide] belongs at most 0.1 µM; to `CC(C)(O)CCCOc1ccc(Cl)c(-c2ccnc(NC(=O)c3nnc([C@@H](O)c4ccccc4)[nH]3)c2)c1` [Example 478, (S)-N-(4-(2-chloro-5-((4-hydroxy-4-methylpentyl)oxy)phenyl)pyridin-2-yl)-5-(hydroxyl(phenyl)methyl)-4H-1,2,4-triazole-3-carboxamide], 0.1 to 1 µM.
